Source: the Kinase Knowledgebase extract (Sharma et al. 2016)

Molecular target: PIK3CA (human) (UniProt P42336)
Assay: Assessment of PIK3CA Kinase Activity

Sequence of PIK3CA (human) (P42336 whole entry, looked up): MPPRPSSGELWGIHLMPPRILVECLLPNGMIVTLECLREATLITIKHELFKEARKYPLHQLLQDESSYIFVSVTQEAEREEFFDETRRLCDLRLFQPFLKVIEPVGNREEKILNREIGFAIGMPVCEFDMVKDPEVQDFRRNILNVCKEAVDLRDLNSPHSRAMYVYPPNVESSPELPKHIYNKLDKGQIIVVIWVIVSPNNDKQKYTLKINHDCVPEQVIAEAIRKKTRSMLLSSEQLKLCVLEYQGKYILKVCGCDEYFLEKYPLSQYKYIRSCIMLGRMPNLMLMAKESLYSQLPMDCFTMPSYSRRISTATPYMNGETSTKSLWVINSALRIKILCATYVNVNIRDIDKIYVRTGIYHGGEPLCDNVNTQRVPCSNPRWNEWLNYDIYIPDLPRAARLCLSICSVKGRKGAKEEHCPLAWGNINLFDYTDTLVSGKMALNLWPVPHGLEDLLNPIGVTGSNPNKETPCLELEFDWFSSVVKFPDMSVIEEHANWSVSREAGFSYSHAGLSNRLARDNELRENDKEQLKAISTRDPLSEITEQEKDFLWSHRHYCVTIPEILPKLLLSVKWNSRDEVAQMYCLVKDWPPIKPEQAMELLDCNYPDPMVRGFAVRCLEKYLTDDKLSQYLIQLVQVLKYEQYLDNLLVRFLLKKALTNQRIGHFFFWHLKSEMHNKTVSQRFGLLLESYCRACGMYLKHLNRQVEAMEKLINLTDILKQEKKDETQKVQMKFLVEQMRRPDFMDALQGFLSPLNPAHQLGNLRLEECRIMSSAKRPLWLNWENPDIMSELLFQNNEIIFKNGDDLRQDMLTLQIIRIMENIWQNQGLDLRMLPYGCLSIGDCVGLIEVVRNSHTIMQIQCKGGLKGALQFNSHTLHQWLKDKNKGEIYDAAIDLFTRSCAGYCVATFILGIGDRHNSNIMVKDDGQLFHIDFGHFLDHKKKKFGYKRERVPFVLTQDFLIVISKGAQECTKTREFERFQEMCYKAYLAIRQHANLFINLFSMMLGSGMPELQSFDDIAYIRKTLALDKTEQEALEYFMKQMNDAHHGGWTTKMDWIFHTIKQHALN

Row | SMILES | IC50 [µM]
1 | CC(C)n1cnnc1-c1nc2c(s1)CCOc1cc(CNCC(F)(F)F)ccc1-2 | < 1
2 | C[C@H](O)C(=O)N1CC(Nc2ccc3c(n2)-c2sc(-c4ncnn4-c4ccc(F)cc4F)cc2CCO3)C1 | < 1
3 | CN(C(=O)c1cc2c(s1)-c1ccc(C(=O)NCCS(C)(=O)=O)cc1OCC2)c1cc(C(=O)N2CC(O)C2)ccc1Cl | < 1
4 | COc1cncc(-c2ccc3c(c2)-c2nc(-c4ncnn4C(C)C)sc2CCO3)c1 | < 1
5 | CC(C)n1ncnc1-c1nc2c(s1)CCOc1cc(C3CN(S(=O)(=O)C(C)C)C3)ccc1-2 | < 1
6 | COCCN1CCC(c2ccc3c(c2)OCCc2sc(-c4ncnn4C(C)C)nc2-3)CC1 | < 1
7 | Cc1cccc(N2CCN(C(=O)c3nc4c(s3)CCOc3cc(-c5cn[nH]c5)ccc3-4)CC2)n1 | < 1
8 | O=C(c1nc2c(s1)CCOc1cc(-c3cn[nH]c3)ccc1-2)N1CC[C@@H](O)C1 | < 1
9 | COc1ccccc1-c1ccc2c(c1)-c1nc(-c3ncnn3C(C)C)sc1CCO2 | < 1
10 | Cc1cc(-c2ccc3c(n2)-c2sc(-c4ncnn4-c4ccc(F)cc4F)cc2CCO3)cnc1F | < 1
11 | CN(C[C@@H](O)CO)C(=O)c1nc2c(s1)CCOc1cc(-c3cn[nH]c3)ccc1-2 | < 1
12 | CC(C)n1ncnc1-c1nc2c(s1)CCOc1ccc(C3CN(CCO)C3)cc1-2 | < 1
13 | Nc1ccc(-c2ccc3c(n2)-c2sc(-c4ncnn4-c4ccc(F)cc4F)cc2CCO3)cn1 | < 1
14 | CN(CCO)C(=O)c1ccc(Cl)c(N(C)C(=O)c2cc3c(s2)-c2ccc(C(=O)NCCS(C)(=O)=O)cc2OCC3)c1 | < 1
15 | CC(C)n1ncnc1-c1nc2c(s1)CCOc1ccc(C3CN(C(=O)OC(C)(C)C)C3)cc1-2 | < 1
16 | CC(C)n1ncnc1-c1nc2c(s1)CCOc1cc(C3CCN(S(C)(=O)=O)CC3)ccc1-2 | < 1
17 | CC(C)n1nc(N)nc1-c1nc2c(s1)CCOc1cc(-c3cnn(CC4(C)COC4)c3)ccc1-2 | < 1
18 | CN1CCN(c2ccc3c(n2)-c2sc(-c4ncnn4-c4ccc(F)cc4F)cc2CCO3)CC1 | < 1
19 | CN(CCO)c1ccc2c(n1)-c1sc(-c3ncnn3-c3ccc(F)cc3F)cc1CCO2 | < 1
20 | O=C(c1nc2c(s1)CCOc1cc(-c3cn[nH]c3)ccc1-2)N1CCCN(c2ccncc2)CC1 | < 1
21 | COc1ncccc1-c1ccc2c(c1)-c1nc(-c3ncnn3C(C)C)sc1CCO2 | < 1

Row | SMILES | IC50 [µM]
22 | O=C(NCC(F)F)c1ccc2c(c1)OCCc1sc(-c3ncnn3CC(F)(F)F)nc1-2 | < 1
23 | COCCn1cccc(-c2ccc3c(c2)-c2nc(-c4ncnn4C(C)C)sc2CCO3)c1=O | < 1
24 | CC(C)c1nn(C)c(=O)n1-c1nc2c(s1)CCOc1cc(-c3cnn(CCO)c3)ccc1-2 | < 1
25 | NCCn1cc(-c2ccc3c(c2)OCCc2sc(-c4ncnn4CC(F)(F)F)nc2-3)cn1 | < 1
26 | CNC(=O)c1ccc2c(c1)OCCc1cc(C(=O)N(C)c3cc(C(=O)N4CC(F)(F)C4)ccc3Cl)sc1-2 | < 1
27 | O=C(c1nc2c(s1)CCOc1cc(-c3cn[nH]c3)ccc1-2)N(CCO)C1CCCCC1 | < 1
28 | CC(=O)Nc1ccc(-c2ccc3c(n2)-c2sc(-c4ncnn4-c4ccc(F)cc4F)cc2CCO3)cn1 | < 1
29 | O=C(c1nc2c(s1)CCOc1cc(-c3cn[nH]c3)ccc1-2)N1CCC(C(=O)N2CCCC2)CC1 | < 1
30 | CN1CCN(C(=O)c2nc3c(s2)CCOc2cc(-c4cn[nH]c4)ccc2-3)CC1 | < 1
31 | C[C@@H]1CN(c2ccc3c(n2)-c2sc(-c4ncnn4-c4ccc(F)cc4F)cc2CCO3)C[C@H](C)N1C(=O)C(F)F | < 1
32 | CN(C)CCCc1ccc2c(n1)-c1sc(-c3ncnn3-c3ccc(F)cc3F)cc1CCO2 | < 1
33 | OC1CCN(c2ccc3c(n2)-c2sc(-c4ncnn4-c4ccc(F)cc4F)cc2CCO3)CC1 | < 1
34 | COCCn1ccc(-c2ccc3c(c2)-c2nc(-c4ncnn4C(C)C)sc2CCO3)cc1=O | < 1
35 | COCCNc1ccc2c(n1)-c1sc(-c3ncnn3-c3ccc(F)cc3F)cc1CCO2 | < 1
36 | CC(=O)NCCNc1ccc2c(n1)-c1sc(-c3ncnn3-c3ccc(F)cc3F)cc1CCO2 | < 1
37 | CC(C)(C)n1nc(N)nc1-c1nc2c(s1)CCOc1cc(-c3cn[nH]c3)ccc1-2 | < 1
38 | CC(C)N(CCCO)C(=O)c1nc2c(s1)CCOc1cc(-c3cn[nH]c3)ccc1-2 | < 1
39 | CC(C)n1ncnc1-c1nc2c(s1)CCOc1cc(C3CCN(C(C)(C)C(N)=O)CC3)ccc1-2 | < 1
40 | COCCn1cc(-c2ccc3c(c2)OCCc2sc(-c4ncnn4C(C)C)nc2-3)ccc1=O | < 1
41 | CN(C[C@H]1Cc2ccccc2O1)C(=O)c1nc2c(s1)CCOc1cc(-c3cn[nH]c3)ccc1-2 | < 1
42 | CC(C)N(CCO)C(=O)c1nc2c(s1)CCOc1ccc(-c3cnn(C[C@@H](C)O)c3)cc1-2 | < 1

Other lines, results leading:

Row | IC50 [µM] | SMILES
43 | < 1 | CC(=O)N(C)[C@@H]1CCN(C(=O)c2nc3c(s2)CCOc2cc(-c4cn[nH]c4)ccc2-3)C1
44 | < 1 | O=C(c1nc2c(s1)CCOc1cc(-c3cn[nH]c3)ccc1-2)N(CCO)C1CCCC1
45 | < 1 | Cc1nc(-c2nc3c(s2)CCOc2cc(CN)ccc2-3)n(C(C)C)n1
46 | < 1 | O=C(c1nc2c(s1)CCOc1cc(-c3cn[nH]c3)ccc1-2)N1CCC[C@@H]1Cc1ccccn1
47 | < 1 | CC(C)n1ncnc1-c1nc2c(s1)CCOc1ccc(-c3ccc(N4CCCC4)nc3)cc1-2
48 | < 1 | Fc1ccc(-n2ncnc2-c2cc3c(s2)-c2ccc(C4CNC4)cc2OCC3)c(F)c1
49 | < 1 | CN(C)C(=O)Cn1cc(-c2ccc3c(c2)OCCc2sc(-c4ncnn4CC(F)(F)F)nc2-3)cn1
50 | < 1 | COCC1CCN(C(=O)c2nc3c(s2)CCOc2cc(-c4cn[nH]c4)ccc2-3)CC1
51 | < 1 | O=S1(=O)CCN(c2ccc3c(n2)-c2sc(-c4ncnn4-c4ccc(F)cc4F)cc2CCO3)CC1
52 | < 1 | Cc1ncccc1-c1ccc2c(c1)-c1nc(-c3ncnn3C(C)C)sc1CCO2
53 | < 1 | O=C(NCCO)c1ccc2c(c1)OCCc1sc(-c3ncnn3CC(F)(F)F)nc1-2
54 | < 1 | CC(C)n1ncnc1-c1nc2c(s1)CCOc1ccc(-c3ccc(S(N)(=O)=O)cc3)cc1-2
55 | < 1 | CC(C)(C)C1CCN(C(=O)c2nc3c(s2)CCOc2cc(-c4cn[nH]c4)ccc2-3)CC1
56 | < 1 | CC(C)(O)Cn1cc(-c2ccc3c(c2)OCCc2sc(N4C(=O)OCC4(C)C)nc2-3)cn1
57 | < 1 | CC(C)n1ncnc1-c1nc2c(s1)CCOc1cc(C3CN(CC(=O)NCC(C)(C)O)C3)ccc1-2
58 | < 1 | CC(C)n1ncnc1-c1nc2c(s1)CCOc1cc(CN3CCC[C@H]3C(N)=O)ccc1-2
59 | < 1 | CCNC(=O)NCc1ccc2c(c1)OCCc1sc(-c3nc(C)nn3C(C)C)nc1-2
60 | < 1 | CN(C(=O)c1cc2c(s1)-c1ccc(C(=O)NCCS(C)(=O)=O)cc1OCC2)c1cc(C(=O)N2CC(F)(F)C2)ccc1Cl
61 | < 1 | CC(C)n1ncnc1-c1nc2c(s1)CCOc1ccc(-c3ccc[nH]c3=O)cc1-2
62 | < 1 | CC(C)n1ncnc1-c1nc2c(s1)CCOc1cc(C3CN(C(=O)C4(N)CC4)C3)ccc1-2
63 | < 1 | CC(C)n1ncnc1-c1nc2c(s1)CCOc1cc(O[C@H](C)C(N)=O)ccc1-2
64 | < 1 | Fc1ccc(-n2ncnc2-c2cc3c(s2)-c2nc(NC4COC4)ccc2OCC3)c(F)c1
65 | < 1 | O=C(c1nc2c(s1)CCOc1cc(-c3cn[nH]c3)ccc1-2)N1CCCNCC1
66 | < 1 | CC(=O)N1CC(n2ccnc2-c2nc3c(s2)CCOc2cc(-c4cnn(CC(C)(C)O)c4)ccc2-3)C1
